Assay results taken from US4914086A, “Method for treating African human and veterinary trypanosomiases” (priority 1987, dated 1990).

What was measured:
[1] = test system: Trypanosoma brucei rhodesiense; conditions: bone marrow tissue culture system; cited from earlier work
T. b. brucei EATRO 110 = test: Delayed administration of 9-DINO on the EATRO 110 model (Table 2); format: in vivo, Trypanosoma brucei brucei (in Swiss-Webster mice); conditions: for # Cured/Total / % Cured: 3 days
Excerpt: T. b. brucei EATRO 110 isolate was maintained as described (Bacchi, C. J., H. C. Nathan, S. H. Hutner, P. P. McCann and A. Sjoerdsma; Polyamine metabolism: a potential chemotherapeutic target in trypanosomes. Science 210: 332-334, 1980). It produces an acute, rapidly fatal parasitemia which is lethal to mice 3-5 days after inoculation. Two T. B. brucei strains, TREU 667 and LUMP 1001 developed by Jennings and coworkers (Jennings, F. W., D. D. Whitelaw and G. M. Urquhart; The relationship between duration of infection with Trypanosoma brucei in mice and the efficacy of chemotherapy. Parasitology 75: 143-153, 1977/Jennings, F. W. and G. D. Gray; Relapsed parasitemia following chemotherapy of chronic T. brucei infections in mice and its relation to cerebral trypanosomes; Contr. Microbiol. Immunol. 7 147-154, 1983) were used as CNS models. Both produce infections which are refractory to Berenil® (diminazene aceturate) and develop within 21 days after inoculation. They are not usually fatal until >40 days after inoculation. LUMP 1001 causes a more virulent CNS infection than TREU 667, and is regarded as more difficult to cure (Jennings, F. W. and G. D. Gray. Relapsed parasitemia following chemotherapy of chronic T. brucei infections in mice and its relation to cerebral trypanosomes. Contr. Microbiol. Immunol. 7 147-154, 1983).
Swiss-Webster (25-30 g) mice were used throughout. […] Animals were divided into groups of 5 before treatment. Cured animals survived >30 days beyond deaths of controls. All compounds were administered by i.p. injection.

mouse L cells = conditions: cited from earlier work
T. vivax = conditions: multiple daily doses; Dube et al.; cited from earlier work
[2] = treatment begun 48 h post infection, 25 mg/kg i.p. daily
[3] = treatment begun 48 h post infection, 50 mg/kg i.p. daily
[4] = treatment begun 48 h post infection, 100 mg/kg i.p. daily
[5] = treatment begun 72 h post infection, 25 mg/kg i.p. daily, only fully treated animals
[6] = treatment begun 72 h post infection, 50 mg/kg i.p. daily, only fully treated animals
[7] = treatment begun 72 h post infection, 100 mg/kg i.p. daily, only fully treated animals

Row | Structure (SMILES) | activity in words [1] | efficacy in words (T. b. brucei EATRO 110; treatment at 48 h post infection, 25 to 100 mg/kg) | # Cured/Total (T. b. brucei EATRO 110; [2]) | % Cured (T. b. brucei EATRO 110; [2]) | # Cured/Total (T. b. brucei EATRO 110; [3]) | % Cured (T. b. brucei EATRO 110; [3]) | # Cured/Total (T. b. brucei EATRO 110; [4]) | % Cured (T. b. brucei EATRO 110; [4]) | # Cured/Total (T. b. brucei EATRO 110; [5]) | % Cured (T. b. brucei EATRO 110; [5]) | # Cured/Total (T. b. brucei EATRO 110; [6]) | % Cured (T. b. brucei EATRO 110; [6]) | # Cured/Total (T. b. brucei EATRO 110; [7]) | % Cured (T. b. brucei EATRO 110; [7]) | activity in words (T. b. brucei EATRO 110; treatment delayed 48 or 72 h post infection) | toxicity in words (mouse L cells) | cure in words (T. vivax)
1 | O=c1[nH]cnc2c([C@@H]3O[C@H](CO)[C@@H](O)[C@H]3O)c[nH]c12 [9-DINO, 7-beta-D-ribofuranosyl-4-oxo-3H, 5H-pyrrolo (3,2-d) pyrimidine] | active at very low concentrations | completely effective | 5/5 | 100% | 5/5 | 100% | 5/5 | 100% | 6/10 | 60% | 6/10 | 60% | 6/9 | 67% | active | neither toxic for mouse L cells | 
2 | Nc1ncnc2c1ncn2[C@@H]1O[C@H](C[C@@H](N)CC[C@H](N)C(=O)O)[C@@H](O)[C@H]1O [Sinefungin, 6,9-Diamino-1-(6-amino-9H-purin-9-yl)-1,5,6,7,8,9-hexadeoxy-beta-D-ribo-decofuranuronic acid] |  |  |  |  |  |  |  |  |  |  |  |  |  |  |  |  | cured
